Laboratory results taken from patent US20230117034A1, “PYRAZOLOTRIAZINES” (Bayer Aktiengesellschaft, priority 2019, published 2023).
pIC50: −log10 of the molar value.

Experiments:
[1] = tested on: BRCA1 mRNA expression in MDA-MB-231 cells; assay: qRT-PCR assay: BRCA1 mRNA expression in MDA-MB-231; assay type: cell-based, human; settings: Homo sapiens, MDA-MB-231, Inhibition of BRCA1 mRNA expression in MDA-MB-231 cells; median; read-out: RTqPCR-MDA-MB-231, IC50, BRCA1 (median)
How it was run: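 First, cells are plated at 200,000 per well and allowed 24 h. Second, test substances are applied continuously for a further 24 h. Finally, RNA is isolated, 600 ng is converted to cDNA, and qPCR quantifies the transcript relative to GAPDH.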

[2] = target: CDK12/CycK (Homo sapiens, UniProt Q9NYV4); assay: CDK12/CycK high ATP kinase assay (TR-FRET, 2 mM ATP); assay type: biochemical; settings: 2 mM ATP (high ATP); median; read-out: CDK12/CyclinK, 2 mM ATP (high ATP), IC50-[mol/l] (median)
Sequence of CDK12/CycK (Q9NYV4 with tags, fused parts or gaps): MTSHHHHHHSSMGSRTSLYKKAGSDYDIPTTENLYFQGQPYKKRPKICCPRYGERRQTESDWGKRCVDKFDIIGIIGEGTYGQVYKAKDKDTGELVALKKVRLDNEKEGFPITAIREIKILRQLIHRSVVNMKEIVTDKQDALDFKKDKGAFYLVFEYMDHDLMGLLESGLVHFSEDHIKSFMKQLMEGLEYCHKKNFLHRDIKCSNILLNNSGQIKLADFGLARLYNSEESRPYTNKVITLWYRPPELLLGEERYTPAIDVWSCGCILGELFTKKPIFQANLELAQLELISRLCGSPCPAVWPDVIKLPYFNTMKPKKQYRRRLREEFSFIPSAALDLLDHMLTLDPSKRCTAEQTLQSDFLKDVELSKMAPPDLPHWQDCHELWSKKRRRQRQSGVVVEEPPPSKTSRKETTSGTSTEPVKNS
Sequence of CDK12/CycK (O75909 1-300 partner limits assumed): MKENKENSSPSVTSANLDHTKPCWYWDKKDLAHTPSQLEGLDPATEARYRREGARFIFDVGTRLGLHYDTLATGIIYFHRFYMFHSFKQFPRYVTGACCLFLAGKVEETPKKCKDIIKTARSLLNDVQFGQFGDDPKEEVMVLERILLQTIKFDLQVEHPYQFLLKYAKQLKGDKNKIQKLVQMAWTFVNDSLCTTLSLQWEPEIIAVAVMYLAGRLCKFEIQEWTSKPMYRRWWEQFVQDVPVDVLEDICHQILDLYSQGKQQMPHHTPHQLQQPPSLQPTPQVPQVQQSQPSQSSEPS
How it was run: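 Read-out is TR-FRET (Eu-anti-rabbit IgG, anti-phospho-c-Myc Ser62 antibody, streptavidin-XL665) after EDTA stop. Reaction ran 60 min at 22 °C using 1 µM biotin-peptide and high ATP (2 mM) with roughly 0.75 nM recombinant CDK12/CycK, after 15 min compound pre-binding; normalised emission ratios yield IC50.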

SMILES	pIC50 [1]	pIC50 [2]
CN1CCN(c2nc(NCc3nc4cc(C(F)(F)F)ccc4[nH]3)n3ncc(C4CC4)c3n2)CC1 [Example 313, 8-cyclopropyl-2-(4-methylpiperazin-1-yl)-N-{[5-(trifluoromethyl)-1H-benzimidazol-2-yl]methyl}pyrazolo[1,5-a][1,3,5]triazin-4-amine]	7.66	
OC[C@@H]1CCCCN1c1nc(NCc2nnc(-c3ccccc3)[nH]2)n2ncc(Br)c2n1 [Example 70, [(2S)-1-(8-bromo-4-{[(5-phenyl-4H-1,2,4-triazol-3-yl)methyl]amino}pyrazolo[1,5-a][1,3,5]triazin-2-yl)piperidin-2-yl]methanol]	7.25	6.21
c1ccc(-c2nnc(CNc3nc(N4CCOCC4)nc4c(C5CC5)cnn34)[nH]2)cc1 [Example 93, 8-cyclopropyl-2-(morpholin-4-yl)-N-[(5-phenyl-4H-1,2,4-triazol-3-yl)methyl]pyrazolo[1,5-a][1,3,5]triazin-4-amine]		5.57
c1ccc2[nH]c(CNc3nc(N4CCOCC4)nc4c(C5CC5)cnn34)nc2c1 [Example 92, N-[(1H-benzimidazol-2-yl)methyl]-8-cyclopropyl-2-(morpholin-4-yl)pyrazolo[1,5-a][1,3,5]triazin-4-amine]	7.88	5.49
Clc1cccc(-c2cnc(CNc3nc(N4CCOCC4)nc4c(Br)cnn34)[nH]2)c1 [Example 81, 8-bromo-N-{[5-(3-chlorophenyl)-1H-imidazol-2-yl]methyl}-2-(morpholin-4-yl)pyrazolo[1,5-a][1,3,5]triazin-4-amine]		6.12
Cc1ccccc1-c1cnc(CNc2nc(N3CCOCC3)nc3c(Br)cnn23)[nH]1 [Example 85, 8-bromo-N-{[5-(2-methylphenyl)-1H-imidazol-2-yl]methyl}-2-(morpholin-4-yl)pyrazolo[1,5-a][1,3,5]triazin-4-amine]	7.74	5.20
CCc1cnn2c(NCc3nc4c(F)c(F)ccc4[nH]3)nc(N3CCN(C)CC3)nc12.O=CO [Example 435, formic acid N-[(4,5-difluoro-1H-benzimidazol-2-yl)methyl]-8-ethyl-2-(4-methylpiperazin-1-yl)pyrazolo[1,5-a][1,3,5]triazin-4-amine]	9.02	
COC1CCN(c2nc(NCc3nc4ccccc4[nH]3)n3ncc(Br)c3n2)CC1 [Example 62, N-[(1H-benzimidazol-2-yl)methyl]-8-bromo-2-(4-methoxypiperidin-1-yl)pyrazolo[1,5-a][1,3,5]triazin-4-amine]	7.42	5.24
Fc1ccc(-c2cnc(CNc3nc(N4CCOCC4)nc4c(Br)cnn34)[nH]2)cc1 [Example 66, 8-bromo-N-{[5-(4-fluorophenyl)-1H-imidazol-2-yl]methyl}-2-(morpholin-4-yl)pyrazolo[1,5-a][1,3,5]triazin-4-amine]	6.20	5.99
COC(=O)C1CCN(c2nc(NCc3nc4ccccc4[nH]3)n3ncc(Br)c3n2)CC1 [Example 63, methyl 1-(4-{[(1H-benzimidazol-2-yl)methyl]amino}-8-bromopyrazolo[1,5-a][1,3,5]triazin-2-yl)piperidine-4-carboxylate]	6.47	4.94
FC(F)(F)Oc1ccccc1-c1nnc(CNc2nc(N3CCOCC3)nc3c(Br)cnn23)[nH]1 [Example 74, 8-bromo-2-(morpholin-4-yl)-N-({5-[2-(trifluoromethoxy)phenyl]-4H-1,2,4-triazol-3-yl}methyl)pyrazolo[1,5-a][1,3,5]triazin-4-amine]		< 4.70
CC1(C)CN(c2nc(NCc3nnc(-c4ccccc4)[nH]3)n3ncc(Br)c3n2)CCO1 [Example 68, 8-bromo-2-(2,2-dimethylmorpholin-4-yl)-N-[(5-phenyl-4H-1,2,4-triazol-3-yl)methyl]pyrazolo[1,5-a][1,3,5]triazin-4-amine]	7.36	5.26
CC(C)c1cnn2c(NCc3nc4ccccc4[nH]3)nc(N3CCN(C)CC3)nc12 [Example 2, N-[(1H-benzimidazol-2-yl)methyl]-2-(4-methylpiperazin-1-yl)-8-(propan-2-yl)pyrazolo[1,5-a][1,3,5]triazin-4-amine]	7.68	< 4.70
CC(C)c1cnn2c(NCc3nc4ccccc4[nH]3)nc(N3CCOC(C)(C)C3)nc12 [Example 12, N-[(1H-benzimidazol-2-yl)methyl]-2-(2,2-dimethylmorpholin-4-yl)-8-(propan-2-yl)pyrazolo[1,5-a][1,3,5]triazin-4-amine]	6.93	
COC(=O)C1CCN(c2nc(NCc3nnc(-c4ccccc4)[nH]3)n3ncc(Br)c3n2)CC1 [Example 77, methyl 1-(8-bromo-4-{[(5-phenyl-4H-1,2,4-triazol-3-yl)methyl]amino}pyrazolo[1,5-a][1,3,5]triazin-2-yl)piperidine-4-carboxylate]		5.00
Brc1cnn2c(NCc3nnc(-c4ccccc4)[nH]3)nc(N3CC4(COC4)C3)nc12 [Example 65, 8-bromo-2-(2-oxa-6-azaspiro[3.3]heptan-6-yl)-N-[(5-phenyl-4H-1,2,4-triazol-3-yl)methyl]pyrazolo[1,5-a][1,3,5]triazin-4-amine]	7.84	< 5.24
Brc1cnn2c(NCc3ncc(-c4ccccn4)[nH]3)nc(N3CCOCC3)nc12 [Example 90, 8-bromo-2-(morpholin-4-yl)-N-{[5-(pyridin-2-yl)-1H-imidazol-2-yl]methyl}pyrazolo[1,5-a][1,3,5]triazin-4-amine]	7.86	5.35
OCC1COCCN1c1nc(NCc2nc3ccccc3[nH]2)n2ncc(Br)c2n1 (centres unmarked) [Example 67, (4-{4-[(1H-benzimidazol-2-ylmethyl)amino]-8-bromopyrazolo[1,5-a][1,3,5]triazin-2-yl}morpholin-3-yl)methanol]	7.61	5.56
CC(C)c1cnn2c(NCc3nc4ccccc4[nH]3)nc(N(C)C)nc12 [Example 3, N^4-[(1H-benzimidazol-2-yl)methyl]-N^2,N^2-dimethyl-8-(propan-2-yl)pyrazolo[1,5-a][1,3,5]triazine-2,4-diamine]		< 4.70
C[C@@H]1CN(c2nc(NCc3nnc(-c4ccccc4)[nH]3)n3ncc(Br)c3n2)C[C@H](C)O1 [Example 78, 8-bromo-2-[(2R,6S)-2,6-dimethylmorpholin-4-yl]-N-[(5-phenyl-4H-1,2,4-triazol-3-yl)methyl]pyrazolo[1,5-a][1,3,5]triazin-4-amine]		6.14
Fc1ccc2[nH]c(CNc3nc(N4CCOCC4)nc4c(-c5cnn(C(F)F)c5)cnn34)nc2c1F [Example 422, N-[(4,5-difluoro-1H-benzimidazol-2-yl)methyl]-8-[1-(difluoromethyl)-1H-pyrazol-4-yl]-2-(morpholin-4-yl)pyrazolo[1,5-a][1,3,5]triazin-4-amine]	8.13	
COC1CCN(c2nc(NCc3nnc(-c4ccccc4)[nH]3)n3ncc(Br)c3n2)CC1 [Example 76, 8-bromo-2-(4-methoxypiperidin-1-yl)-N-[(5-phenyl-4H-1,2,4-triazol-3-yl)methyl]pyrazolo[1,5-a][1,3,5]triazin-4-amine]		< 5.27
FC(F)(F)Oc1cccc(-c2cnc(CNc3nc(N4CCOCC4)nc4c(Br)cnn34)[nH]2)c1 [Example 82, 8-bromo-2-(morpholin-4-yl)-N-({5-[3-(trifluoromethoxy)phenyl]-1H-imidazol-2-yl}methyl)pyrazolo[1,5-a][1,3,5]triazin-4-amine]		6.04
Fc1cccc(-c2cnc(CNc3nc(N4CCOCC4)nc4c(Br)cnn34)[nH]2)c1 [Example 79, 8-bromo-N-{[5-(3-fluorophenyl)-1H-imidazol-2-yl]methyl}-2-(morpholin-4-yl)pyrazolo[1,5-a][1,3,5]triazin-4-amine]		6.25
FC(F)(F)c1ccccc1-c1cnc(CNc2nc(N3CCOCC3)nc3c(Br)cnn23)[nH]1 [Example 88, 8-bromo-2-(morpholin-4-yl)-N-({5-[2-(trifluoromethyl)phenyl]-1H-imidazol-2-yl}methyl)pyrazolo[1,5-a][1,3,5]triazin-4-amine]		5.87
Clc1ccccc1-c1nnc(CNc2nc(N3CCOCC3)nc3c(Br)cnn23)[nH]1 [Example 69, 8-bromo-N-{[5-(2-chlorophenyl)-4H-1,2,4-triazol-3-yl]methyl}-2-(morpholin-4-yl)pyrazolo[1,5-a][1,3,5]triazin-4-amine]		< 5.24
FC(F)(F)c1cccc(-c2cnc(CNc3nc(N4CCOCC4)nc4c(Br)cnn34)[nH]2)c1 [Example 83, 8-bromo-2-(morpholin-4-yl)-N-({5-[3-(trifluoromethyl)phenyl]-1H-imidazol-2-yl}methyl)pyrazolo[1,5-a][1,3,5]triazin-4-amine]		5.98
Fc1ccccc1-c1nnc(CNc2nc(N3CCOCC3)nc3c(Br)cnn23)[nH]1 [Example 75, 8-bromo-N-{[5-(2-fluorophenyl)-4H-1,2,4-triazol-3-yl]methyl}-2-(morpholin-4-yl)pyrazolo[1,5-a][1,3,5]triazin-4-amine]		< 5.42
FC(F)(F)Oc1ccccc1-c1cnc(CNc2nc(N3CCOCC3)nc3c(Br)cnn23)[nH]1 [Example 89, 8-bromo-2-(morpholin-4-yl)-N-({5-[2-(trifluoromethoxy)phenyl]-1H-imidazol-2-yl}methyl)pyrazolo[1,5-a][1,3,5]triazin-4-amine]		4.97
CN1CCN(c2nc(NCc3nc4cc(Cl)c(Cl)cc4[nH]3)n3ncc(C4CC4)c3n2)CC1 [Example 305, 8-cyclopropyl-N-[(5,6-dichloro-1H-benzimidazol-2-yl)methyl]-2-(4-methylpiperazin-1-yl)pyrazolo[1,5-a][1,3,5]triazin-4-amine]	8.21	
